The source of these data is US20050118290A1, “Compositions and method for treatment of steroid/nuclear receptor-mediated diseases” (University of Singapore, priority 2003, published 2005).

Type in all cases: cell-based
The target in one assay is T1, PPARα (Homo sapiens, UniProt Q07869).
T1 construct: expressed in transfected cells; host or cells: HeLa
T1 sequence (Q07869 239-466 limits assumed): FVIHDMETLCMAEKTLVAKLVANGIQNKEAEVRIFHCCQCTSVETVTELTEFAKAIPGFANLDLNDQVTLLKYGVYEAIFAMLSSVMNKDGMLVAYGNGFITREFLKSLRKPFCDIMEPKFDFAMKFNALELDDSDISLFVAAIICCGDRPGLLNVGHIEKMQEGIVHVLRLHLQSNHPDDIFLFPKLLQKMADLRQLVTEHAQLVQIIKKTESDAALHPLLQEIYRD
The experiment in a line: Chimeric Gal4DBD-PPARαLBD receptor / UASg-luciferase reporter gene assay in HeLa cells. As to conditions: with WY14643 30×10^−6M. The source says:
(§1) In an example of such a reporter gene assay, a plasmid containing chimeric Ga14DBD-PPARLBD receptor cDNA was constructed by excising the ligand binding domain (LBD) of full length PPARγ and PPARα and ligating the resulting fragments in frame to the Ga14-DNA binding domain (DBD) of Saccharomyces cerevisiae in a pM vector (Clontech). Specifically, to construct Ga14DBD-PPARγLBD plasmid, pSG5 expression vector (Stratagene) containing full length PPARγ was excised with Rsa I and blunt ligated to Hind III site of pMGa14DBD expression plasmid (Clontech). To construct Ga14DBD-PPARαLBD plasmid, pSG5 expression vector (Stratagene) containing full length PPARα was excised with BstU I and BamH I and blunt-end ligated in frame to BamH I site of pMGa14DBD expression plasmid (Clontech). […] Ga14 DBD binds very strongly to the exogenous UASg promoter, thereby giving rise to a sensitive and specific assay. To measure PPARγ and PPARα agonist activity, HeLa cells were grown in 24-well microtiter plates and then transiently co-transfected with the two plasmids (chimeric PPAR receptor and UASg reporter gene) using Lipofectamine (Invitrogen). […] Concurrently, cells exposed to known PPAR ligands served as positive controls. Replicate wells, exposed to the vehicle solvent (i.e., ethanol or methanol) in which herbal extracts were dissolved, were used as negative controls. After the 40 hr incubation period, cells were rinsed with phosphate buffered saline (PBS), lysis buffer was added, and cell lysates were collected for measurement of luciferase activity using a luminometer. […] All data points are in triplicate. The data points represent the mean of triplicate wells. Luciferase activity in such an assay accurately reflects the activity of any ligands on PPARγ or PPARα.
In general terms: A reporter such as luciferase makes a cellular process visible.

In a further assay the target is T2, human androgen receptor (Homo sapiens, UniProt P10275).
T2 construct: expressed in transfected cells; host or cells: HeLa
T2 sequence (P10275 1-920): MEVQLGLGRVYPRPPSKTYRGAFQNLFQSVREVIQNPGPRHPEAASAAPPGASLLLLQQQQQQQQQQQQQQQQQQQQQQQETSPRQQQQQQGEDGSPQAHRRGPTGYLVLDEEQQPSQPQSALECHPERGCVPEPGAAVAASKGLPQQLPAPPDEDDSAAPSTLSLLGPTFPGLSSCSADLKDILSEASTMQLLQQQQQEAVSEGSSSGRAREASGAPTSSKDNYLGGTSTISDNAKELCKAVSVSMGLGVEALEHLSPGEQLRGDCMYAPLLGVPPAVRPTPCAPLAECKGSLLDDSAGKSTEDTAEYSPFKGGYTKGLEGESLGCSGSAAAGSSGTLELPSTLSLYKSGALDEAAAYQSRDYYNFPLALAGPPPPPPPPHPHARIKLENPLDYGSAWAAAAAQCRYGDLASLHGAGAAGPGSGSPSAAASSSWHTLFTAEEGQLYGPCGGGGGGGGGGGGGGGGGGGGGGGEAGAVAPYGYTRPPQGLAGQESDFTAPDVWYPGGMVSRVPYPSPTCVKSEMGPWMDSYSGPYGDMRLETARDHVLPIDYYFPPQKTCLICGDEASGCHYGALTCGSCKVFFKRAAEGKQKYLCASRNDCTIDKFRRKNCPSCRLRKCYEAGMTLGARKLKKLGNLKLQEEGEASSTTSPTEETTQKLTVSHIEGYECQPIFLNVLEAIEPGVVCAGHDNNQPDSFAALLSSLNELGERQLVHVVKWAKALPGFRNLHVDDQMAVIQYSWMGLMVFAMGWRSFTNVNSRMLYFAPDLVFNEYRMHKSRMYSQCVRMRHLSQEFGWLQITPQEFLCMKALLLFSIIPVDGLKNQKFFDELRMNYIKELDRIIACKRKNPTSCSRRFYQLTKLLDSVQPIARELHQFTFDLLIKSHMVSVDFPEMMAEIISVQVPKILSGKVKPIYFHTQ
Kind of assay: AR (ARE)2-Luc luciferase reporter gene assay in HeLa cells. The method, then:
(§2) The capacity of HQ extract to activate other steroid receptors, namely AR, PR, GR, ERα and ERβ was examined. […] The (ARE)2-Luc plasmid consist of two repeats of Androgen Response Element (ARE) cloned upstream of the Luciferase Reporter gene in a pGL3-Basic vector (Promega).
(§3) AR, PR, GR and ERα and […] were determined by comparing luciferase activity in test cells with control cells exposed to vehicle (i.e., ethanol or methanol) only, analogous to the determination of PPAR activity as described in the previous examples.

The next assay concerns the target T3, Progesterone Receptor (Homo sapiens, UniProt P06401).
T3 construct: expressed in transfected cells; host or cells: HeLa (named for the formononetin and daidzein experiments)
T3 sequence (P06401 1-933): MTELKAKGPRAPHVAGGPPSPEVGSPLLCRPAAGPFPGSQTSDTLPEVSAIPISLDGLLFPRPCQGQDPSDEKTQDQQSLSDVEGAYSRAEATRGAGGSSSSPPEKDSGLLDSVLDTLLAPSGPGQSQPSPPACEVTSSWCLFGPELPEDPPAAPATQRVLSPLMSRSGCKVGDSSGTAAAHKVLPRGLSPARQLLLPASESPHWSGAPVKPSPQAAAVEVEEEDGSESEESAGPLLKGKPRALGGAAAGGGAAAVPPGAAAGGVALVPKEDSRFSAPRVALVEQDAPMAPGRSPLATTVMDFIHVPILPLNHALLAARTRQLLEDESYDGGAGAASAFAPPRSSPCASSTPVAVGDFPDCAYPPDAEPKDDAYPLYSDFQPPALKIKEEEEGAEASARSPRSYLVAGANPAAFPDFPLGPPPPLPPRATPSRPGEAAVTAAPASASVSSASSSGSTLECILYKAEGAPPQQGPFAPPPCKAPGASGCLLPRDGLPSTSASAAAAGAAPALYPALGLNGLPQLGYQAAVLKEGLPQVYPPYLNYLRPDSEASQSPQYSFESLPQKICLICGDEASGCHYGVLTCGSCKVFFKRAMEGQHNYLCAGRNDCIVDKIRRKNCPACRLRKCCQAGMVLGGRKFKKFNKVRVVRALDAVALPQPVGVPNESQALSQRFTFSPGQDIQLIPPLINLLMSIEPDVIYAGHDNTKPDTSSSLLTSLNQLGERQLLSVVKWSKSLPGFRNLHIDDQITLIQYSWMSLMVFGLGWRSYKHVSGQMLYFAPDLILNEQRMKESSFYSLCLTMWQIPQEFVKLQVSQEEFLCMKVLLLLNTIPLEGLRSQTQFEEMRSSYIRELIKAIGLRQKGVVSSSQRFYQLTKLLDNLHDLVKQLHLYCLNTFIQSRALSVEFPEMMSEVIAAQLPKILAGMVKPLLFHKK
Kind of assay: PR (ARE)2-Luc luciferase reporter gene assay. The following applies: Example 16; progesterone 100×10^−9M, 10 × 10^−9M (Table 11). On the procedure: as §2, §3

Another assay addresses T4, PPARγ (Homo sapiens, UniProt P37231).
T4 construct: expressed in transfected cells; host or cells: HeLa
T4 sequence (P37231 238-503 limits assumed): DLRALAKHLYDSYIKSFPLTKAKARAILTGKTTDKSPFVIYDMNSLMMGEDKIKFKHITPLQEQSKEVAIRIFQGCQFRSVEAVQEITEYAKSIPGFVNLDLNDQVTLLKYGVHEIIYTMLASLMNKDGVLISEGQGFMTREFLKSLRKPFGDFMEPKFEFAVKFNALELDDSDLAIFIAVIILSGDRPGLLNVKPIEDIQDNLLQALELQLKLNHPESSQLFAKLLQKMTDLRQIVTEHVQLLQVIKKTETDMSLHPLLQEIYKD
Kind of assay: Chimeric Gal4DBD-PPARγLBD receptor / UASg-luciferase reporter gene assay in HeLa cells.
Excerpt: as §1

The mark [1] stands for this setting: GW9662 0.1 ×10^−6M (first line).
[2] abbreviates: GW9662 0.1 ×10^−6M (second line, r12).

Converted amounts (≈) assume the structure as drawn.

For the compound “3′,7-Dihydroxy-4′-methoxyisoflavone [calycosin]”, the “increase of the activity of maximal doses of PPARα agonist” value at PPARα was 7 fold. Also, at human androgen receptor (with dihydrotestosterone 1×10^−9M), the “increase of the activity of maximal doses of AR agonist” value is on record as 3 fold. At Progesterone Receptor, the “increase of the activity of maximal doses of PR agonist” value is given as 3 fold.
As to `CCCCC/C=C/C=C1/C(=O)C=C[C@@H]1C/C=C\CCCC(=O)O` [Compound 15DPGJ2, 15-deoxy-δ12,14, Prostaglandin J2, reference compound], on PPARγ (FIG. 1A, HeLa cells), the “EC50 (PPARγ activity)” value turned out to be 0.5 µg/mL (≈ 1.58 µM).
On to `O=C(Nc1ccccc1)c1cc([N+](=O)[O-])ccc1Cl` [GW9662, reference compound], for which the “Luciferase activity (% Pioglitazone 30 × 100^−6M ± SE), Piogliltazone (30 × 10^−6M)” value on PPARγ (setting [1]) came to 97 ± 23.8%; at PPARγ (setting [2]), 114 ± 5%; on PPARγ (GW9662 1 ×10^−6M), 77.2 ± 11.4%; on PPARγ (GW9662 10 ×10^−6M), 40.6 ± 12.3%. Further, the “Luciferase activity (% Pioglitazone 30 × 100^−6M ± SE), Vehicle (DMSO)” value on PPARγ (setting [1]) was 13.8 ± 0.207%; on PPARγ (setting [2]), 13.8 ± 2.28%; on PPARγ (GW9662 1 ×10^−6M), 23.5 ± 2.74%; at PPARγ (GW9662 10 ×10^−6M), 39.3 ± 4.38%. For the same compound, on PPARγ (Table 12), the “PPARγ activity on its own” value was “weak PPARγ agonistic activity”. The “doses that inhibited the PPARγ effects of pioglitazone” value on PPARγ (with pioglitazone 30 × 10^−6M, dose-dependent) is recorded as “above 1 ×10^−6M”.
On to `CC1(COc2ccc(CC3SC(=O)NC3=O)cc2)CCCCC1` (stereo not shown) [ciglitazone, reference compound], for which the “Luciferase activity ± SEM (% ciglitazone 10 × 10^−6 M), substance alone” value at PPARγ (0.1 ×10^−6 g/mL) is 15.4 ± 0.81%; on PPARγ (0.3 ×10^−6 g/mL) it was 21.7 ± 1.52%; on PPARγ (1.0 ×10^−6 g/mL), 55.3 ± 7.99%; on PPARγ (3.0 ×10^−6 g/mL) it was 100 ± 6.13%. Moreover, the “Luciferase activity ± SEM (% ciglitazone 10 × 10^−6 M), HQ extract + ciglitazone 10 × 10^−6 M” value on PPARγ (HQ extract 0.0 ×10^−6 g/mL (ciglitazone 10 × 10^−6 M only)) came out at 100 ± 2.91%.
As for `O=c1c(-c2ccc(O)cc2)coc2cc(O)cc(O)c12` [genistein], the “Luciferase activity (Fold ± SE), PPAR activity at fixed dose” value on PPARγ (GW9662 0 ×10^−6M, fixed doses: HQ Water extract 8 × 10^−6 g/mL, HQ DCM extract 50 × 10^−6 g/mL, Formononetin, Genistein 10 × 10^−6 M) amounted to 7.37 ± 0.128 Fold; on PPARγ (GW9662 0.3 ×10^−6M, fixed doses), 93.6 ± 2.47 Fold; on PPARγ (GW9662 1 ×10^−6M, fixed doses) it was 83.9 ± 4.37 Fold; on PPARγ (GW9662 3 ×10^−6M, fixed doses), 82.5 ± 2.63 Fold; at PPARγ (GW9662 10 ×10^−6M, fixed doses), 67.4 ± 1.52 Fold; at PPARγ (GW9662 30 ×10^−6M, fixed doses), 39.5 ± 0.403 Fold. Also, at human androgen receptor (0.1 to 30×10^−6M, no dihydrotestosterone), the “intrinsic agonistic AR activity” value is given as “does not display any intrinsic agohistic AR activity”. The “further increase of the activity of saturating doses of dihydrotestosterone” value at human androgen receptor (dihydrotestosterone 10×10^−9M, FIG. 2A) is listed as 5 fold. Also, on human androgen receptor (fixed 3×10^−6 M, dihydrotestosterone 0.01 to 10×10^−9M, FIG. 2B), the “effect on the activity of dihydrotestosterone on AR” value was “augmented”.
